Target: T1, Protein mono-ADP-ribosyltransferase TIPARP (Homo sapiens, UniProt Q7Z3E1)
T1 sequence (Q7Z3E1 whole entry): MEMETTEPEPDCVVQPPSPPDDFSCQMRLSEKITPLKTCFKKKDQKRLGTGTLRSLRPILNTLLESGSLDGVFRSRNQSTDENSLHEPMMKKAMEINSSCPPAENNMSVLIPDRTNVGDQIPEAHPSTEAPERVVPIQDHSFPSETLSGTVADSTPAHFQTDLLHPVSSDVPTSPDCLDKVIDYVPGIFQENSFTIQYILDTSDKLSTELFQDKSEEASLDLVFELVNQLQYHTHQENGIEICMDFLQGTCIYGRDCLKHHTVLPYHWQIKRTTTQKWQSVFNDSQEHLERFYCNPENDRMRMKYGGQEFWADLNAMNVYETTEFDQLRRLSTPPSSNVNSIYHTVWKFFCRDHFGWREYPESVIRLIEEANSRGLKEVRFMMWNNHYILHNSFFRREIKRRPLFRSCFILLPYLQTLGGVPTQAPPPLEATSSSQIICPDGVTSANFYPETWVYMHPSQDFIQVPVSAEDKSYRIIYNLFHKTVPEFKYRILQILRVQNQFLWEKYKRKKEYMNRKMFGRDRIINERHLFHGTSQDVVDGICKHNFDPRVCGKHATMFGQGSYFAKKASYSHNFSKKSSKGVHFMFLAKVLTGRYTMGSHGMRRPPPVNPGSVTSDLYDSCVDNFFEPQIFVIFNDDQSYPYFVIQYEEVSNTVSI
Assay: Enzymatic Assay for Inhibition of PARP7: Displacement of Probe A, a biotinylated probe binding to the TIPARP active site, was measured using a time-resolved fluorescence energy transfer (TR-FRET) assay. 20 nL of a dose response curve of each test compound was spotted in black 384-well polystyrene proxiplates (Perkin Elmer) using a Mosquito (TTP Labtech). Reactions were performed in a 8 μL volume by adding 6 μL of TIPARP and Probe A in assay buffer (20 mM HEPES pH=8, 100 mM NaCl, 0.1% bovine serum albumin, 2 mM DTT and 0.002% Tween20), incubating with test compound at 25° C. for 30 min, then adding 2 μL of ULight-anti 6×His and LANCE Eu-W1024 labeled streptavidin (Perkin Elmer). The final concentrations of TIPARP and Probe A were 6 nM and 2 nM, respectively. The final concentration of ULight-anti 6xHis and LANCE Eu-W1024 labeled streptavidin were 4 nM and 0.25 nM, respectively. Reactions were incubated at 25° C. for an additional 30 min, then read on an Envision platereader equipped with a LANCE/DELFIA top mirror (Perkin Elmer) using excitation of 320 nm and emission of 615 nm and […] with a 90 μs delay. The ratio of the 665/615 nm emission were calculated for each well to determine the amount of complex of TIPARP and Probe A in each well. […] The Hill Coefficient is normally allowed to float but may also be fixed at 1 in a 3-parameter fit. Y is the % inhibition and x is the compound concentration.

SMILES	IC50 [nM]
C[C@@H](COCCC(=O)N1CCC(Nc2ncc(C(F)(F)F)s2)C1)Nc1cn[nH]c(=O)c1C(F)(F)F (stereo partly drawn)	< 100
O=C(CCOC[C@@H]1CCCN1c1cn[nH]c(=O)c1C(F)(F)F)N[C@H]1CC[C@H](Nc2ccccn2)CC1	100 to 1000
O=C(COC[C@@H]1CCCN1c1cn[nH]c(=O)c1C(F)(F)F)N[C@H]1CC[C@@H](Nc2ccccn2)CC1	100 to 1000
O=C(CCOC[C@H](Nc1cn[nH]c(=O)c1C(F)(F)F)C1CCNCC1)N1CCN(c2ncc(C(F)(F)F)cn2)CC1	< 100
N#Cc1ccc(N2CCN(C(=O)CCOCCOC3CN(c4cn[nH]c(=O)c4C(F)(F)F)C3)CC2)nc1	> 1000
O=c1[nH]ncc(N2Cc3cccc(O)c3C2)c1C(F)(F)F	< 100

Continued, values first:

IC50 [nM]	SMILES
< 100	N#Cc1ccc(N2CCN(C(=O)[C@H]3C[C@H](OC[C@@H]4CCCN4c4cn[nH]c(=O)c4C(F)(F)F)C3)CC2)nc1
< 100	N#Cc1ccc(N2CCN(C(=O)CC3COCCN3c3cn[nH]c(=O)c3C(F)(F)F)CC2)nc1 (stereo not drawn)

From ChEMBL document CHEMBL5727538, “Pyridazinones as PARP7 inhibitors” (2020)
